Values quoted from earlier work, collected in patent US9919015B2, “Composition and method for inhibiting herpesviridae infections” (VIRATEC PTY LTD, priority 2005, dated 2018).
Like-named read-outs stand apart in the source and are kept apart here.

Assays:
[1] = system: primary herpetic gingivostomatitis; conditions: Primary Herpetic Stomatitis
[2] = system: recurrent herpes labialis; conditions: treatment commenced within 1 hour; Rabon et al. (1989)
[3] = system: recurrent genital herpetic infection; conditions: for healing rate, oral acyclovir: Nilsen et al. (1982); for healing rate, topical acyclovir: Corey et al. (1982)
herpes zoster = conditions: Esmann et al. (1982); Bean et al (1983)
[4] = system: Oral Hairy Leukoplakia (EBV)

Which results are given for `Nc1nc2c(ncn2COCCO)c(=O)[nH]1` [Acyclovir, acyclovir]?
Expected healing time Acyclovir (upper end) [1]: ≤ 4 weeks; Expected healing time Acyclovir ([1]; treated symptomatically or with acyclovir, listed as acyclovir): 10 to 28 days; complete healing with acyclovir [2]: 7 to 8 days; time to analgesia with acyclovir [2]: 1 to 2 days; healing rate, oral acyclovir [3]: 5 days oral; healing rate, oral acyclovir ([3]; listed as acyclovir): 5 days; healing rate, topical acyclovir [3]: 7.4 days topical; healing rate, topical acyclovir ([3]; listed as acyclovir): 7.4 days; time to initial crusting with acyclovir (herpes zoster): 2 to 3 days; response, subjects ([4]; oral acyclovir, after 10 days, Resnick et al (1988)): 5/6; response time with oral acyclovir ([4]; Herbst et al. (1989), Resnick et al (1988)): 10-20 days - oral; response time with oral acyclovir ([4]; Herbst et al. (1989), Resnick et al (1988), listed as acyclovir): 10 to 20 days; resolution of OHL, subjects ([4]; systemic acyclovir, after 20 days, Herbst et al. (1989)): 12/14
